Results: US4271170A, “Pyridine derivatives” (Ono Pharmaceutical Co., Ltd.,, priority 1978, dated 1981)
Counter-ions that a name gives are not always drawn. Like-named read-outs stand apart in the source and are kept apart here.

How the values were obtained:
[1] = system: thromboxane synthetase; details: prior-art compounds, literature reports as judged by the applicant; cited from earlier work
[2] = target: T1, thromboxane synthetase from rabbit platelet microsomes (Oryctolagus cuniculus, UniProt G1TAZ9); assay: inhibition of thromboxane synthetase from rabbit platelet microsomes (conversion of prostaglandin H2 into thromboxane B2); assay type: biochemical
T1 construct: thromboxane synthetase from rabbit platelet microsomes; from tissue; host or cells: rabbit platelet microsomes
T1 sequence (G1TAZ9 1-530): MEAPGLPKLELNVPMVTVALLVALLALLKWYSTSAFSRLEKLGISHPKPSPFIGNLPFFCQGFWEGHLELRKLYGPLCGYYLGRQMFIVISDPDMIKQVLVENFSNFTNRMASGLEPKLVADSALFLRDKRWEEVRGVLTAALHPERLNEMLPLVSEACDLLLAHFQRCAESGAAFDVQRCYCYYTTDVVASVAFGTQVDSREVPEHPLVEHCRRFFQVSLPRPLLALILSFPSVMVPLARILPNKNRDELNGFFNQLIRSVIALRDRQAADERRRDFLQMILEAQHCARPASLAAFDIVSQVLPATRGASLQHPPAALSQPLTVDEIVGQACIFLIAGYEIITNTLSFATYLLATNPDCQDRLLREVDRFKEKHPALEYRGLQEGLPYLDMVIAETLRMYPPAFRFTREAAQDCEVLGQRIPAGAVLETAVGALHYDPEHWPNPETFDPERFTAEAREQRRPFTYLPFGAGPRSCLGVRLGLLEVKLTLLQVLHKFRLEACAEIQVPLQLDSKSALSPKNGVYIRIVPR

[3] = rabbit platelet microsomes, one common range stated for all listed compounds, read-out: molar concentration producing a 50% inhibition of thromboxane synthetase

| Molecule | IC50 [2, 3] [nM] | further results |
| --- | --- | --- |
| Cn1ccnc1 [1-methylimidazole] | – | inhibitory activity on thromboxane synthetase [1]: very weak |
| CC(C)(Cc1ccc(Cc2cccnc2)cc1)C(=O)O [2,2-Dimethyl-3-[4-(3-pyridylmethyl)phenyl]propionic acid hydrochloride] | 3 to 650 | – |
| CC(C)(Oc1ccc(Cc2cccnc2)cc1)C(=O)O [2-Methyl-2-[4-(3-pyridylmethyl)phenoxy]propionic acid hydrochloride] | 3 to 650 | – |
| CC(C)(Sc1ccc(Cc2cccnc2)cc1)C(=O)O [2-Methyl-2-[4-(3-pyridylmethyl)phenylthio]propionic acid hydrochloride] | 3 to 650 | – |
| CC(Cc1ccc(C(C)c2cccnc2)cc1)C(=O)O (centres unmarked) [2-Methyl-3-[4-(1-3'-pyridylethyl)phenyl]propionic acid hydrochloride] | 3 to 650 | – |
| CCOC(=O)C(C)Cc1ccc(Cc2cccnc2)cc1 (centres unmarked) [2-Methyl-3-[4-(3-pyridylmethyl)phenyl]propionic acid ethyl ester] | 3 to 650 | – |
| CC(Cc1ccc(Cc2cccnc2)cc1)C(=O)O (centres unmarked) [2-Methyl-3-[4-(3-pyridylmethyl)phenyl]propionic acid hydrochloride] | 3 to 650 | – |
| O=C(O)COc1ccc(Cc2cccnc2)cc1 [2-[4-(3-Pyridylmethyl)phenoxy]acetic acid hydrochloride] | 3 to 650 | – |
| CCOC(=O)C(C)Oc1ccc(Cc2cccnc2)cc1 (centres unmarked) [2-[4-(3-Pyridylmethyl)phenoxy]propionic acid ethyl ester] | – | IC50 [2]: 3 to 650 nM |
| CC(Oc1ccc(Cc2cccnc2)cc1)C(=O)O (centres unmarked) [2-[4-(3Pyridylmethyl)phenoxy]propionic acid hydrochloride] | 3 to 650 | – |
| CC(CC(=O)O)c1ccc(Cc2cccnc2)cc1 (centres unmarked) [3-[4-(3-Pyridylmethyl)phenyl]butyric acid hydrochloride] | 3 to 650 | – |
| CCOC(=O)CCc1ccc(Cc2cccnc2)cc1 [3-[4-(3-Pyridylmethyl)phenyl]propionic acid ethyl ester] | 3 to 650 | – |
| O=C(O)CCc1ccc(Cc2cccnc2)cc1 [3-[4-(3-Pyridylmethyl)phenyl]propionic acid hydrochloride] | 3 to 650 | – |
| O=C(O)c1ccc(Cc2cccnc2)cc1 [4-(3-Pyridylmethyl)benzoic acid hydrochloride] | 3 to 650 | – |
| CCOC(=O)COc1ccc(Cc2cccnc2)cc1 [4-(3-Pyridylmethyl)phenoxyacetic acid ethyl ester] | 3 to 650 | – |
| O=C(O)Cc1ccc(Cc2cccnc2)cc1 [4-(3-Pyridylmethyl)phenylacetic acid hydrochloride] | 3 to 650 | – |
| Oc1ccc(Cc2cccnc2)cc1 [4-(3-pyridylmethyl)phenol hydrochloride, 4-(3-Pyridylmethyl)phenol hydrochloride] | 3 to 650 | – |
| CCCCCC(O)C=CC1C2CC(N=N2)C1CC=CCCCC(=O)O (centres unmarked) [9,11-azo-15-hydroxyprosta-5,13-dienoic acid] | – | inhibitory activity on thromboxane synthetase [1]: very weak |
| CCCCCC(O)C=CC1C2COC(C2)C1CC=CCCCC(=O)O (centres unmarked) [9,11-epoxymethano-15-hydroxyprosta-5,13-dienoic acid] | – | inhibitory activity on thromboxane synthetase [1]: very weak |
| CCCCCCCCC1C2COC(C2)C1CCCCCCC(=O)O (centres unmarked) [9,11-epoxymethanoprostanoic acid] | – | inhibitory activity on thromboxane synthetase [1]: very weak |
| O=C(O)/C(Br)=C/c1ccc(Cc2cccnc2)cc1 [(2)-2-Bromo-3-[4-(3-pyuridylemthyl)phenyl]acrylic acid hydrochloride] | 3 to 650 | – |
| CC/C(=C\c1ccc(Cc2cccnc2)cc1)C(=O)O [(E)-2-Ethyl-3-[4-(3-pyridylmethyl)phenyl]acrylic acid hydrochloride] | 3 to 650 | – |
| CCOC(=O)/C(C)=C/c1cccc(Cc2cccnc2)c1 [(E)-2-Methyl-3-[3-(3-pyridylmethyl)phenyl]acrylic acid ethyl ester] | 3 to 650 | – |
| C/C(=C\c1cccc(Cc2cccnc2)c1)C(=O)O [(E)-2-Methyl-3-[3-(3-pyridylmethyl)phenyl]acrylic acid hydrochloride] | 3 to 650 | – |

| Molecule | IC50 [2, 3] [nM] | further results |
| --- | --- | --- |
| CCOC(=O)/C(C)=C/c1ccc(Cc2cccnc2)c(C)c1 [(E)-2-Methyl-3-[3-Methyl-4-(3-pyridylmethyl)phenyl]acrylic acid ethyl ester] | 3 to 650 | – |
| C/C(=C\c1ccc(Cc2cccnc2)c(C)c1)C(=O)O [(E)-2-Methyl-3-[3-methyl-4-(3-pyridylmethyl)phenyl]acrylic acid hydrochloride] | 3 to 650 | – |
| C/C(=C\c1ccc(C(C)c2cccnc2)cc1)C(=O)O (centres unmarked) [(E)-2-Methyl-3-[4-(1-3'-pyridylethyl)phenyl]acrylic acid hydrochloride] | 3 to 650 | – |
| C/C(=C\c1ccc(Cc2cccnc2)cc1)C(=O)O [(E)-2-Methyl-3-[4-(3-pyridylmethyl)pehnyl]acrylic acid hydrochloride] | 3 to 650 | – |
| C/C(=C\c1ccc(Cc2cccnc2)cc1)C(=O)Oc1ccccc1C [(E)-2-Methyl-3-[4-(3-pyridylmethyl)phenyl]acrylic acid 2-methylphenyl ester] | 3 to 650 | – |
| C/C(=C\c1ccc(Cc2cccnc2)cc1)C(=O)Oc1cccc(C(F)(F)F)c1 [(E)-2-Methyl-3-[4-(3-pyridylmethyl)phenyl]acrylic acid 3-trifluoromethylphenyl ester] | 3 to 650 | – |
| C/C(=C\c1ccc(Cc2cccnc2)cc1)C(=O)OCc1ccccc1 [(E)-2-Methyl-3-[4-(3-pyridylmethyl)phenyl]acrylic acid benzyl ester] | 3 to 650 | – |
| C/C(=C\c1ccc(Cc2cccnc2)cc1)C(=O)OCc1ccc(-c2ccccc2)cc1 [(E)-2-Methyl-3-[4-(3-pyridylmethyl)phenyl]acrylic acid biphenylmethyl ester] | 3 to 650 | – |
| C/C(=C\c1ccc(Cc2cccnc2)cc1)C(=O)Oc1ccccc1 [(E)-2-Methyl-3-[4-(3-pyridylmethyl)phenyl]acrylic acid phenyl ester] | 3 to 650 | – |
| CCSC(=O)/C(C)=C/c1ccc(Cc2cccnc2)cc1 [(E)-2-Methyl-3-[4-(3-pyridylmethyl)phenyl]thioacrylic S-acid S-ethyl ester hydrochloride] | 3 to 650 | – |
| C/C(=C\c1ccc(Cc2cnccc2C)cc1)C(=O)O [(E)-2-Methyl-3-[4-(4-methyl-3-pyridylmethyl)phenyl]acrylic acid hydrochloride] | 3 to 650 | – |
| Cc1cc(/C=C/C(=O)O)ccc1Cc1cccnc1 [(E)-3-[3-Methyl-4-(3-pyridylmethyl)phenyl]acrylic acid hydrochloride] | 3 to 650 | – |
| O=C(O)/C=C/c1ccc(C(O)c2cccnc2)cc1 (centres unmarked) [(E)-3-[4-(3-Pyridylhydroxymethyl)phenyl]acrylic acid hydrochloride] | 3 to 650 | – |
| C/C(=C\C(=O)O)c1ccc(Cc2cccnc2)cc1 [(E)-3-[4-(3-Pyridylmethyl)phenyl]-2-butenoic acid hydrochloride] | 3 to 650 | – |
| O=C(O)/C=C/c1ccc(Cc2cccnc2)cc1 [(E)-3-[4-(3-Pyridylmethyl)phenyl]acrylic acid hydrochloride] | 3 to 650 | – |
| C/C(=C\c1ccc(Cc2cccnc2)s1)C(=O)O [(E)-5-(3-Pyridylmethyl)-2-(2-carboxy-1-propenyl(thiophene hydrochloride] | 3 to 650 | – |
| O=C(O)/C=C/c1ccc(Cc2cccnc2)s1 [(E)-5-(3-Pyridylmethyl)-2-(2-carboxyvinyl)thiophene hydrochloride] | 3 to 650 | – |
| COC(=O)/C(Br)=C/c1ccc(Cc2cccnc2)cc1 [(Z)-2-Bromo-3-[4-(3-pyridylmethyl)phenyl]acrylic acid methyl ester] | 3 to 650 | – |
| CC(C)c1[nH]c2ccccc2c1C(=O)c1cccnc1 [Example L-8027, 2-isopropyl-3-nicotinylindole] | – | inhibitory activity on thromboxane synthetase [1]: very weak |
| CCCCCC=CC[C@@H](C=CC=CCC=CCCCC(=O)O)OO [HPETE, 12L-hydroperoxy-5,8,10,14-eicosatetraenoic acid] | – | inhibitory activity on thromboxane synthetase [1]: very weak |
| c1c[nH]cn1 [imidazole] | – | inhibitory activity on thromboxane synthetase [1]: very weak |
| CC(Cc1ccc(O)c(O)c1)C(C)Cc1ccc(O)c(O)c1 (centres unmarked) [nordihydroguaiaretic acid] | – | inhibitory activity on thromboxane synthetase [1]: very weak |
| sodium p-benzyl-4-[1-oxo-2-(4-chlorobenzyl)-3-phenylpropyl]phenylphosphonate [Example N-0164] | – | inhibitory activity on thromboxane synthetase [1]: very weak |
